Measured values published in patent US7803992B2, “Methods and compositions for expressing an herbicide-tolerant polynucleotide” (Pioneer Hi-Bred International, Inc., priority 2005, dated 2010).

Experiments:
Assay type in all cases: in vivo
[1] = tested on: parent elite stiff stalk inbred corn; assay: Preemergence herbicide application in greenhouse: fresh shoot weight and visual injury; settings: for Fresh Weight: fresh shoots weighed 4 weeks after treatment, untreated 36.7 g; for pest or weed control at 200 g/ha: Zea mays, pre-emergence, 672 h, read-out: % Visual Injury
[2] = tested on: Heterozygous GAT-HRA corn; assay: as above; settings: for Fresh Weight: fresh shoots weighed 4 weeks after treatment, untreated 47.0 g; for pest or weed control at 200 g/ha: Zea mays, pre-emergence, 672 h, read-out: % Visual Injury
[3] = tested on: parent elite stiff stalk inbred corn; assay: Postemergence herbicide application in greenhouse: fresh shoot weight and visual injury; settings: for Fresh Weight: weighed 2 weeks after treatment, untreated 76.4 g; for pest or weed control at 200 g/ha: Zea mays, post-emergence, read-out: % Visual Injury
[4] = tested on: Heterozygous GAT-HRA corn; assay: as above; settings: for Fresh Weight: weighed 2 weeks after treatment, untreated 98.8 g; for pest or weed control at 200 g/ha: Zea mays, post-emergence, read-out: % Visual Injury
[5] = preemergence, 200 g/ha, 0% no injury, 100% plant death, mean of four replications
[6] = preemergence, 200 g/ha, mean of four replications
[7] = postemergence, 200 g/ha (glyphosate 3472 g ae/ha, glufosinate ammonium 1870 g/ha), 0% no injury, 100% plant death, mean of four replications
[8] = postemergence, 200 g/ha (glyphosate 3472 g ae/ha, glufosinate ammonium 1870 g/ha), mean of four replications

Row | Molecule | % Visual Injury [1, 5] | Fresh Weight [1, 6] | % Visual Injury [2, 5] | Fresh Weight [2, 6] | % Visual Injury [3, 7] | Fresh Weight [3, 8] | % Visual Injury [4, 7] | Fresh Weight [4, 8] | pest or weed control at 200 g/ha [1, 5] | pest or weed control at 200 g/ha [2, 5] | pest or weed control at 200 g/ha [3, 7] | pest or weed control at 200 g/ha [4, 7] | pest or weed control at 200 g/ha [1] | pest or weed control at 200 g/ha [2] | pest or weed control at 200 g/ha ([3]; […]) | pest or weed control at 200 g/ha ([4]; […])
1 | CCOc1nc(F)cc2nc(S(=O)(=O)Nc3c(Cl)cccc3C(=O)OC)nn12 [Chloransulam-methyl] | 3% | 5.5 g | 3% | 44.9 g | 96% | 6.8 g | 3% | 104.4 g | – | – | – | – | – | – | – | –
2 | Imazamethabenz-methyl | 61% | 36.2 g | 15% | 48.5 g | 11% | 66.9 g | 16% | 95.0 g | – | – | – | – | – | – | – | –
3 | COC(=O)c1ccccc1CS(=O)(=O)NC(=O)Nc1nc(OC)cc(OC)n1 [Bensulfuron-methyl] | – | 28.4 g | – | 39.9 g | – | 9.0 g | – | 103.3 g | 23% | 10% | 93% | 14% | – | – | – | –
4 | COc1cc(OC)nc(NC(=O)NS(=O)(=O)c2cc(NC=O)ccc2C(=O)N(C)C)n1 [Foramsulfuron] | – | 30.6 g | – | 39.1 g | – | 62.5 g | – | 80.6 g | 5% | 7% | 28% | 8% | – | – | – | –
5 | CCS(=O)(=O)c1nc2ccccn2c1S(=O)(=O)NC(=O)Nc1nc(OC)cc(OC)n1 [Sulfosulfuron] | – | 1.0 g | – | 50.6 g | – | 4.0 g | – | 105.5 g | 100% | 18% | 97% | 3% | – | – | – | –
6 | CCOc1ccccc1OS(=O)(=O)NC(=O)Nc1nc(OC)cc(OC)n1 [Ethoxysulfuron] | – | 28.1 g | – | 40.0 g | – | 24.3 g | – | 79.3 g | 63% | 25% | 88% | 15% | – | – | – | –
7 | COC(=O)c1c(Cl)nn(C)c1S(=O)(=O)NC(=O)Nc1nc(OC)cc(OC)n1 [Halosulfuron-methyl] | – | 28.9 g | – | 40.1 g | – | 58.1 g | – | 94.5 g | – | – | – | – | 30% | 15% | 14% | 8%
8 | COc1nc(C)nc(NC(=O)NS(=O)(=O)c2ccccc2OCCCl)n1 [Triasulfuron] | – | 14.1 g | – | 47.7 g | – | 6.4 g | – | 90.3 g | 89% | 12% | 97% | 6% | – | – | – | –
9 | Cc1ccn2nc(S(=O)(=O)Nc3c(F)cccc3F)nc2n1 [Flumetsulam] | – | 24.6 g | – | 39.1 g | – | 12.8 g | – | 103.8 g | 13% | 13% | 85% | 3% | – | – | – | –
10 | CP(=O)(O)CCC(N)C(=O)O (centres unmarked) [Glufosinate ammonium] | – | – | – | – | – | 2.4 g | – | 112.3 g | – | – | – | – | – | – | 99% | 1%
11 | COC(=O)c1ccccc1S(=O)(=O)NC(=O)Nc1nc(C)cc(C)n1 [Sulfometuron-methyl] | – | 0.0 g | – | 47.3 g | – | 2.0 g | – | 104.5 g | – | – | – | – | 100% | 6% | 100% | 2%
12 | COc1cc(OC)nc(NC(=O)NS(=O)(=O)N(C)S(C)(=O)=O)n1 [Amidosulfuron] | – | 14.2 g | – | 47.7 g | – | 32.0 g | – | 107.4 g | 97% | 25% | 71% | 8% | – | – | – | –
